Values quoted from earlier work in US11318122B2, “Pharmaceutical combination and its use for treating synucleinopathties” (CHASE THERAPEUTICS CORPORATION, priority 2017, dated 2022).

Experiments:
[1] = test system: dopaminergic neurons
[2] = target: alpha-synuclein in human neuroblastoma SH5Y cells (Homo sapiens, UniProt P37840)
[3] = doses approved for the treatment of motor symptoms of PD; 535 PD patients
[4] = target: synuclein (Homo sapiens, UniProt P37840)
[5] = 5 mg/day of pramipexole
[6] = target: human wild-type alpha-synuclein (Homo sapiens, UniProt P37840); conditions: by H2O2 plus cytochrome c
[7] = test system: 6-OHDA (6-hydroxydopamine)-induced damage; conditions: toxin-induced model of PD
[8] = test system: MPTP-induced damage; conditions: toxin-induced model of PD
[9] = test system: extracellular concentrations of norepinephrine and dopamine; conditions: large doses, rodents, acute systemic administration

Row | Structure (SMILES) | toxic effects of rotenone on dopaminergic neurons ([1]; mouse PD model) | immunoreactivity for alpha-synuclein ([1]; rotenone mouse PD model) | aggregation of alpha-synuclein [2] | neuroprotective (disease modifying) activity [3] | synuclein oligomer formation in vitro [4] | nausea [5] | vomiting [5] | patients not able to complete the study ([5]; presumably because of intolerable GI adverse events) | in vitro oligomerization of human wild-type alpha-synuclein [6] | protection against 6-OHDA-induced damage [7] | protection against MPTP-induced damage [8] | extracellular concentrations of norepinephrine and dopamine [9]
1 | CCCN[C@H]1CCc2nc(N)sc2C1 [pramipexole, (S)-6-propylamino-4,5,6,7-tetrahydro-1,3-benzothiazole-2-amine] | inhibits the toxic effects of rotenone | reducing immunoreactivity | inhibit the aggregation | failed to evidence neuroprotective (i.e., disease modifying) activity | diminishes synuclein oligomer formation | 76 % of patients | 39 % of patients | 36 % of patients | decreases the in vitro oligomerization | – | – | –
2 | CNCCC(Oc1ccc(C(F)(F)F)cc1)c1ccccc1 (stereo not drawn) [fluoxetine, 1-methylamino-3-phenyl-3-[4-(trifluoromethyl)phenoxy]propane] | – | – | – | – | – | – | – | – | – | can protect | can protect | significant increase
